Article PMC6783830 (Viruses, 2019)
Like-named read-outs stand apart in the source and are kept apart here.

Experiments:
VSV [1] = experiment: microbe, parasite or virus in culture; format: cell-based; settings: Vesicular stomatitis virus, BHK-21, in Mesocricetus auratus, 24 h, read-out: % Inhibition Metabolic Shut-down (CCK Assay)
VSV [2] = experiment: microbe, parasite or virus in culture; format: cell-based; settings: Vesicular stomatitis virus, BHK-21, in Mesocricetus auratus, 24 h, read-out: % Inhibition Nuclear Condensation (Cell Imaging)
VSV RNP = VSV RNP (Vesicular stomatitis Indiana virus, UniProt P03523); experiment: biochemical; format: biochemical; settings: for inhibition at 20 µM: read-out: % Inhibition mRNA Synthesis (In vitro Transcription)
CHPV RNP = CHPV RNP (Chandipura virus, UniProt P13179); experiment: biochemical
HPIV-3 RNP = HPIV-3 RNP (Human parainfluenza 3 virus, UniProt P12577); format: biochemical, Human parainfluenza virus 3; settings: at 10 µM
VSV L protein = VSV L protein (Vesicular stomatitis Indiana virus, UniProt P03523); experiment: biochemical; format: biochemical
[3] = target: CHPV RdRp (L and P proteins) (Chandipura virus, UniProt P13179); experiment: biochemical; settings: read-out: inhibition of CHPV AC synthesis
[4] = target: VSV L protein (PRNTase domain) (Vesicular stomatitis Indiana virus, UniProt P03523); format: biochemical; settings: at 10 µM
VSV [5] = format: cell-based, Vesicular stomatitis virus in BHK-21 cells (hamster)
VSV-AcGFP [6] = format: cell-based, Vesicular stomatitis virus in BHK-21 cells (hamster); settings: 10 µM
[7] = target: VSV RdRp complex (L and P proteins on N–RNA) (Vesicular stomatitis Indiana virus, UniProt P03523); format: biochemical
VSV-AcGFP [8] = format: cell-based, Vesicular stomatitis virus in BHK-21 cells (hamster); settings: 10 µM; remark: listed apart in the source
BHK-21 cells = settings: at 100 µM
CHPV [9] = system: CHPV
HeLa cells [10] = system: HeLa cells
VSV [11] = system: VSV
RABV [12] = system: RABV
HPIV-3 [13] = system: HPIV-3
HeLa cells [14] = system: HeLa cells; remark: listed apart in the source
in vitro [15] = settings: hamster
in vitro [16] = settings: human
VSV [17] = experiment: microbe, parasite or virus in culture; settings: Vesicular stomatitis virus, BHK-21, in Mesocricetus auratus, 24 h, read-out: Anti-VSV Activity IC50 (VSV-induced metabolic shut-down)
CHPV [18] = experiment: microbe, parasite or virus in culture; settings: Chandipura virus, BHK-21, in Mesocricetus auratus, 24 h, read-out: Anti-CHPV Activity IC50 (CHPV-induced metabolic shut-down)
VSV [19] = experiment: microbe, parasite or virus in culture; settings: Vesicular stomatitis virus, HeLa, in Homo sapiens, 65 h, read-out: Anti-VSV Activity IC50 (VSV-induced metabolic shut-down)
RABV [20] = experiment: microbe, parasite or virus in culture; settings: Lyssavirus rabies, in mouse/rat NG108-15, 48 h, read-out: Anti-RABV activity IC50 (RABV gene expression, luciferase)
HPIV-3 [21] = experiment: microbe, parasite or virus in culture; settings: Human respirovirus 3, HeLa, 72 h, read-out: Anti-HPIV-3 activity IC50

VSV RNP, sequence (P03523 whole entry, looked up): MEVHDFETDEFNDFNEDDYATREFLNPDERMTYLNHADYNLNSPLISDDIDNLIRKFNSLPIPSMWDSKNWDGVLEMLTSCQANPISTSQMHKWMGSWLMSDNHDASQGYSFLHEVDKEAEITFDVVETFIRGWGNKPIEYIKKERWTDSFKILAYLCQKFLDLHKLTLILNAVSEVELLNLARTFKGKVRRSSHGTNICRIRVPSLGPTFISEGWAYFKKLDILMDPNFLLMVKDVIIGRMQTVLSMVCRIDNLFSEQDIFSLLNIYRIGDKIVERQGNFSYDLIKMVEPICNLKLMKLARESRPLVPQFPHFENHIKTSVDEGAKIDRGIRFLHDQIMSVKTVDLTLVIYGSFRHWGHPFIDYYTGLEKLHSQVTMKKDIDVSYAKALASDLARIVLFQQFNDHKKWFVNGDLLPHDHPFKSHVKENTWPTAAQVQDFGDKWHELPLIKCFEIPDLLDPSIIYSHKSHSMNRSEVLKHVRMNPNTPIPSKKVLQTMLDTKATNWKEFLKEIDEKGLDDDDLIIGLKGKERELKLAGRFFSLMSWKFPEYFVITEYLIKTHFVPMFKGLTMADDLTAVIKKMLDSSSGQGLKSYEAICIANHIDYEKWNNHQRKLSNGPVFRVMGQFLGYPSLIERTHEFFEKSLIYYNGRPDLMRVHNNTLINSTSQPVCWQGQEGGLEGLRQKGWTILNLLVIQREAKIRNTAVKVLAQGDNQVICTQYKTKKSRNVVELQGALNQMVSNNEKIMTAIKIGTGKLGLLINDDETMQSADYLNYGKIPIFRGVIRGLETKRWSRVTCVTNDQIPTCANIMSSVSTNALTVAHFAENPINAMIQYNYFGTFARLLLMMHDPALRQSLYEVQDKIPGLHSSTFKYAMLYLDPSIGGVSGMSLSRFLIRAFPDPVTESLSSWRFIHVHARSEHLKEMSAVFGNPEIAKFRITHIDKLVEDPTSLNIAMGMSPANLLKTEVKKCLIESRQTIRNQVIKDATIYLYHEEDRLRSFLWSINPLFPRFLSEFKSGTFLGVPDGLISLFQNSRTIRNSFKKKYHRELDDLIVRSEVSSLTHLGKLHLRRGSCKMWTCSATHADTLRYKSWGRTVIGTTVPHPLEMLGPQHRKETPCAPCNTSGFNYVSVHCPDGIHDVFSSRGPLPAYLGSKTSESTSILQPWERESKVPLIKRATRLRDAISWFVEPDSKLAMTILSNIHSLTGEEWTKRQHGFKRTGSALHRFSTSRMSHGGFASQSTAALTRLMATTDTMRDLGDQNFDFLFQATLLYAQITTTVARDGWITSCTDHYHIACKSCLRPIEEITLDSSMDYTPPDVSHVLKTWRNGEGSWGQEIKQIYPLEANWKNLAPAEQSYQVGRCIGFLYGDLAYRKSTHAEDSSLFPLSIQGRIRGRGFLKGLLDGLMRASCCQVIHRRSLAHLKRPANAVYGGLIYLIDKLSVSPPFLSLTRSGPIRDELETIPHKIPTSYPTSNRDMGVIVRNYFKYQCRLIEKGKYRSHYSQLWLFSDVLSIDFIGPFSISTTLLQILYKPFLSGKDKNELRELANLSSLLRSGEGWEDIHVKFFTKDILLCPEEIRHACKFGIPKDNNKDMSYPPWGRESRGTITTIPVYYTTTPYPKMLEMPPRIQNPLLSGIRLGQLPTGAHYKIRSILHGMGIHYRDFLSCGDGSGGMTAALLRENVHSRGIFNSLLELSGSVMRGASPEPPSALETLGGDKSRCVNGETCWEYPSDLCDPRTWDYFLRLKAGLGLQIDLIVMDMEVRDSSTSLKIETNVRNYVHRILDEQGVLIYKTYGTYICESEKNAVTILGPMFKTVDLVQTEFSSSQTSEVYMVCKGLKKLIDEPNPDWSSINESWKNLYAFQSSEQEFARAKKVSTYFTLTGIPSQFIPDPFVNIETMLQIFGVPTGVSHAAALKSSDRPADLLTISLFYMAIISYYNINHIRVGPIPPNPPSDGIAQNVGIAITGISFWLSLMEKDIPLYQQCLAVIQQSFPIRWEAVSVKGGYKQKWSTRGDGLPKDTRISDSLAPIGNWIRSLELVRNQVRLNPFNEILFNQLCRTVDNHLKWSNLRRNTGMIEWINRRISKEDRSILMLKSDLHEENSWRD
VSV L protein, sequence (P03523 whole entry, looked up): as above

Q: What does the source list for COc1cc2c(cc1C1CC(=O)Nc3cc(O)c(C)cc31)CCC2 (stereo not shown) [VPI E]?
A: inhibition at 17 µM (VSV [1]): 50%; inhibition at 17 µM (VSV [2]): 94%; inhibition at 20 µM (VSV RNP): 72%

Q: Which inhibition at 17 µM (VSV [1]) does the source give for Cc1cc2c(cc1O)NC(=O)CC2c1ccc(Oc2ccccc2)cc1 (stereo not shown) [VPI G] here?
A: 46%

Q: What about the inhibition at 17 µM (VSV [2]) of the same compound?
A: 54%

Q: And the inhibition at 20 µM (VSV RNP)?
A: 68%

Q: For Cc1cc2c(cc1O)NC(=O)CC2c1c[nH]nc1-c1ccc(F)cc1 (stereo not shown) [VPI C], which inhibition at 17 µM (VSV [1]) is on record?
A: 58%

Q: And the inhibition at 17 µM (VSV [2])?
A: 63%

Q: And the inhibition at 20 µM (VSV RNP)?
A: 72%

Q: Which results are given for Cc1cc2c(cc1O)NC(=O)CC2c1cc2ccccc2n1C (stereo not shown) [VPI D]?
A: inhibition at 17 µM (VSV [1]): 55%; inhibition at 17 µM (VSV [2]): 57%; inhibition at 20 µM (VSV RNP): 72%

Q: With COc1ccc(C2CC(=O)Nc3cc(O)c(C)cc32)cc1Cn1cccn1 (stereo not shown) [VPI A] as the compound, how does the inhibition at 17 µM (VSV [1]) read?
A: 105%

Q: And the inhibition at 17 µM (VSV [2])?
A: 98%

Q: And the IC50 (VSV RNP)?
A: 0.81 ± 0.04 µM

Q: And the “VSV LeRNA synthesis” value (VSV RNP)?
A: represses

Q: What about the inhibition at 20 µM (VSV RNP) of the same compound?
A: 99%

Q: What about the IC50 (CHPV RNP) of the same compound?
A: 3.3 ± 0.4 µM

Q: And the “inhibition of in vitro mRNA synthesis of HPIV-3” value (HPIV-3 RNP)?
A: not

Q: What about the “AC synthesis with the VSV L and P proteins” value (VSV L protein) of the same compound?
A: inhibit

Q: And the inhibition at 1 µM (VSV L protein; 1 µM, read-out: inhibition of AC synthesis with the VSV L protein alone)?
A: 85%

Q: And the “AC synthesis with the VSV L and P proteins (Figure S4)” value (VSV L protein; 10 µM)?
A: strongest

Q: And the inhibition at 10 µM (VSV L protein; 10 µM, read-out: inhibition of AC synthesis with the VSV L protein alone)?
A: 100%

Q: And the inhibition at 1 µM ([3]; 1 µM)?
A: 77%

Q: And the inhibition at 10 µM ([3]; 10 µM)?
A: 97%

Q: What about the “capping activity of the PRNTase domain in the VSV L protein” value [4] of the same compound?
A: slightly reduced

Q: What about the “concentration that almost completely abolished VSV production” value (VSV [5]) of the same compound?
A: ≥ 12.5 µM

Q: And the “nuclear condensation and AcGFP expression in infected cells” value (VSV-AcGFP [6])?
A: abrogate

Q: What about the “synthesis of LeRNA1–18 (pulse)” value [7] of the same compound?
A: inhibits

Q: And the “step of VSV infection inhibited (time-of-addition)” value (VSV-AcGFP [8])?
A: inhibits VSV infection at an early post-entry step

Q: What about the “cytotoxic effects on BHK-21 cells” value (BHK-21 cells) of the same compound?
A: little or no cytotoxic effects

Q: What about the “Anti-CHPV Activity SI (CC50/IC50)” value (CHPV [9]) of the same compound?
A: >13

Q: What about the IC50 (CHPV [9]; read-out: Anti-CHPV Activity IC50 (CHPV-induced metabolic shut-down)) of the same compound?
A: 7.9 ± 0.4 µM

Q: And the “toxicity to HeLa cells” value (HeLa cells [10])?
A: less toxic

Q: And the “VSV-induced cell rounding and detachment” value (VSV [11])?
A: inhibited

Q: What about the IC50 (VSV [11]; read-out: Anti-VSV Activity IC50 (VSV-induced metabolic shut-down)) of the same compound?
A: 0.42 ± 0.02 µM

Q: What about the “Anti-RABV activity SI (CC50/IC50)” value (RABV [12]) of the same compound?
A: > 4

Q: And the “Cytotoxicity CC50” value (NA cells)?
A: > 1 0 0 µM

Q: What about the “antiviral effects against HPIV-3” value (HPIV-3 [13]) of the same compound?
A: neither of the compounds showed any antiviral effects

Q: And the “Cytotoxicity CC50” value (HeLa cells [14])?
A: > 1 0 0 µM

Q: What about the CC50 (in vitro [15]) of the same compound?
A: > 100 µM

Q: And the CC50 (in vitro [16])?
A: > 100 µM

Q: And the IC50 (VSV [17])?
A: 2 ± 0.1 µM

Q: And the IC50 (CHPV [18])?
A: 8 µM

Q: What about the IC50 (VSV [19]) of the same compound?
A: 0.4 µM

Q: And the IC50 (RABV [20])?
A: 26 µM

Q: With COc1cc2c(cc1C1CC(=O)Nc3cc(O)c(C)cc31)OCCCO2 (stereo not shown) [VPI H] as the compound, how does the inhibition at 17 µM (VSV [1]) read?
A: 34%

Q: And the inhibition at 17 µM (VSV [2])?
A: 53%

Q: What about the inhibition at 20 µM (VSV RNP) of the same compound?
A: 73%

Q: For Cc1cc2c(cc1O)NC(=O)CC2c1cc(C(C)(C)C)[nH]n1 (stereo not shown) [VPI B], which inhibition at 17 µM (VSV [1]) is on record?
A: 102%

Q: And the inhibition at 17 µM (VSV [2])?
A: 92%

Q: What about the inhibition at 20 µM (VSV RNP) of the same compound?
A: 89%

Q: What about the “concentration that almost completely abolished VSV production” value (VSV [5]) of the same compound?
A: ≥ 25 µM

Q: What about the “nuclear condensation and AcGFP expression in infected cells” value (VSV-AcGFP [6]) of the same compound?
A: abrogate

Q: What about the “cytotoxic effects on BHK-21 cells” value (BHK-21 cells) of the same compound?
A: little or no cytotoxic effects

Q: What about the “Anti-CHPV Activity SI (CC50/IC50)” value (CHPV [9]) of the same compound?
A: >9

Q: And the “toxicity to HeLa cells” value (HeLa cells [10])?
A: less toxic

Q: And the “VSV-induced cell rounding and detachment” value (VSV [11])?
A: inhibited

Q: And the “inhibitory effect on RABV gene expression” value (RABV [12])?
A: little or no inhibitory effect

Q: What about the “Cytotoxicity CC50” value (NA cells) of the same compound?
A: > 1 0 0 µM

Q: And the “antiviral effects against HPIV-3” value (HPIV-3 [13])?
A: neither of the compounds showed any antiviral effects

Q: What about the “Cytotoxicity CC50” value (HeLa cells [14]) of the same compound?
A: > 1 0 0 µM

Q: What about the CC50 (in vitro [15]) of the same compound?
A: > 100 µM

Q: And the CC50 (in vitro [16])?
A: > 100 µM

Q: What about the IC50 (VSV [17]) of the same compound?
A: 6 µM

Q: What about the IC50 (CHPV [18]) of the same compound?
A: 11 ± 1 µM

Q: What about the IC50 (VSV [19]) of the same compound?
A: 1 µM

Q: With O=C(O)CN(CCN(CC(=O)O)CC(=O)O)CC(=O)O [EDTA, reference compound] as the compound, how does the “synthesis of LeRNA1–18 (pulse)” value [7] read?
A: abolishes

Q: What does the source list for NC(=O)c1ncn([C@@H]2O[C@H](CO)[C@@H](O)[C@H]2O)n1 [Ribavirin, reference compound]?
A: Anti-CHPV Activity SI (CC50/IC50) (CHPV [9]): <1; Anti-HPIV-3 activity SI (CC50/IC50) (HPIV-3 [13]): > 5; Cytotoxicity CC50 (HeLa cells [14]): > 1 0 0 µM; CC50 (in vitro [15]): 86 ± 0.5 µM; CC50 (in vitro [16]): > 100 µM; IC50 (VSV [17]): > 100 µM; IC50 (CHPV [18]): > 100 µM; IC50 (VSV [19]): 15 ± 1 µM; IC50 (HPIV-3 [21]): 21 µM

Q: Which results are given for Cc1cc2c(cc1O)NC(=O)CC2c1ccc(-c2cc[nH]n2)o1 (stereo not shown) [VPI F]?
A: inhibition at 17 µM (VSV [1]): 48%; inhibition at 17 µM (VSV [2]): 69%; effect on VSV mRNA synthesis, in words (VSV RNP; at 20 µM): weak inhibitory effect; inhibition at 20 µM (VSV RNP): 34%; AC synthesis with the VSV L and P proteins (Figure S4) (VSV L protein; 10 µM): weakest
